These compounds were tested against T1, HMG-CoA reductase (Rattus norvegicus, UniProt P51639) (assay: intrinsic HMG-CoA reductase inhibition, in vitro protocol of J. Med. Chem., 28, p. 347-358 (1985)). Conditions: IC50 of test compound compared with that of compactin (mevastatin) determined simultaneously; compactin assigned a value of 100.
T1 sequence (P51639 1-887): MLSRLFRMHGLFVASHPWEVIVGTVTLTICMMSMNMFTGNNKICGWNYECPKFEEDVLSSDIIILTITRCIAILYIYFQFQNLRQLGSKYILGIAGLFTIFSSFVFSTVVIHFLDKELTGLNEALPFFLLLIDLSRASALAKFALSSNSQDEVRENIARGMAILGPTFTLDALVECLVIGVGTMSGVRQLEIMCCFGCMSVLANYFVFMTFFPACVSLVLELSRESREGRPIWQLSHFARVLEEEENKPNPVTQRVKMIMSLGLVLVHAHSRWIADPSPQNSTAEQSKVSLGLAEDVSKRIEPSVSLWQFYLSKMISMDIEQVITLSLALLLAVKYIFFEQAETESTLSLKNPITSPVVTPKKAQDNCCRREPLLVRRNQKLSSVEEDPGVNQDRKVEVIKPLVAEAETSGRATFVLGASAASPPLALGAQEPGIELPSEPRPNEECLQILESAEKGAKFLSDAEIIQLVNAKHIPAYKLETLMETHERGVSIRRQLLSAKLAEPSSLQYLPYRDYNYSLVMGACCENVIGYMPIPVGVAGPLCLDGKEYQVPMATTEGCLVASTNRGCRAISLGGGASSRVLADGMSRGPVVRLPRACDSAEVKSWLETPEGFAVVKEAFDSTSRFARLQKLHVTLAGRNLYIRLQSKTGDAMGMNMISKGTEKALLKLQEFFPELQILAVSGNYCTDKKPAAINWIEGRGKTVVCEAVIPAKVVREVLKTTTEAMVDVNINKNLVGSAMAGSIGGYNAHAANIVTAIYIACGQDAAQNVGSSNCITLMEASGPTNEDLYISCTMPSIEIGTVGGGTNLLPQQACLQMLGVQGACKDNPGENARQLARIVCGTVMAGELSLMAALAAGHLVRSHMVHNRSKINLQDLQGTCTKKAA
Format: biochemical
Experimental: The intrinsic HMG--CoA reductase inhibition activity of the claimed compounds is measured in the in vitro protocol published in J. Med. Chem., 28, p. 347-358 (1985).
For estimation of relative inhibitory potencies, compactin (i.e., mevastatin) was assigned a value of 100 and the IC50 value of the test compound was compared with that of compactin determined simultaneously in the published in vitro protocol.
Representative of the intrinsic HMG-CoA reductase inhibitory activities of the claimed compounds are the following potencies.

Q: Which “Relative Potency” value does the source give for CCC(C)(C)C(=O)O[C@H]1CC(C)(C)O[C@@H]2CC[C@H](C)[C@H](CC[C@@H]3C[C@@H](O)CC(=O)O3)[C@@H]12 [Compound 9, 6(R) [2-[8(S)-(2,2-dimethylbutyryloxy)-2(S)-methyl-5-oxa-6,6-dimethyl-1,2,3,4,4a(R),7,8,8a(R)-octahydronaphthyl-1(S)]ethyl]-4(R)-hydroxy-3,4,5,6-tetrahydro-2H-pyran-2-one] here?
A: 96

Q: CCC(C)(C)C(=O)O[C@H]1C[C@@](C)(CSc2ccccc2)O[C@@H]2CC[C@H](C)[C@H](CC[C@@H]3C[C@@H](O)CC(=O)O3)[C@@H]12 [Compound 10, 6(R)-[2-[8(S)-(2,2-dimethylbutyryloxy)-2(S)-methyl-5-oxa-6(S)-(phenylthiomethyl, methyl)-1,2,3,4,4a(R),7,8,8a(R)-octahydronaphthyl-1(S)]ethyl]4(R)-hydroxy 3,4,5,6-tetrahydro-2H-pyran-2-one] was tested. Which “Relative Potency” value did it give?
A: 258

Q: Which “Relative Potency” value does the source give for CCC(C)(C)C(=O)O[C@H]1C[C@](C)(CSc2ccccc2)O[C@@H]2CC[C@H](C)[C@H](CC[C@@H]3C[C@@H](O)CC(=O)O3)[C@@H]12 [Compound 11, 6(R)-[2-[8(S)-(2,2-dimethylbutyryloxy)-2(S)-methyl-5-oxa-6(R)-(phenylthiomethyl, methyl)-1,2,3,4,4a(R),7,-8,8a(R)-octahydronaphthyl-1(S)]ethyl]-4-(R)-hydroxy 3,4,5,6-tetrahydro-2H-pyran-2-one] here?
A: 280

Source: patent publication US4897402A, “5-oxa, 5-thia, 5-aza HmG-CoA reductase inhibitors” (Merck & Co., Inc., priority 1988, dated 1990)
